tested on: NMNAT1 or alcohol dehydrogenase; test: Counter screen with NMN in place of NAM; type: biochemical; conditions: role: inhibitor; 50 μM NMN substituted for NAM
Method: NAMPT activity was measured using a coupled-enzyme assay previously described [Revollo, 2014]. Briefly, reactions consisting of 50 mM Tris pH 8, 0.4 mM PRPP, 2.5 mM ATP, 12 mM MgCl2, 0.02% BSA, 1 μM NAMPT, 77 nM NMNAT1, 10 mM semicarbazide, 30 μg/ml alcohol dehydrogenase were set up in a 384-well plate (50 μl/well). […] The reactions were started by addition of 50 μM NAM. Fluorescence due to NADH formation by alcohol dehydrogenase was measured in a BioTek Cytation 5 plate reader (Agilent, USA) set up for excitation at λ=340 nm and detection of emission at λ=460 nm. To counter screen for NMNAT1 or alcohol dehydrogenase inhibition, the assay was set up above but substituting 50 μM NMN (substrate for NMNAT1) for NAM. No inhibition of was observed under these conditions.

Row | SMILES | inhibition in counter screen
1 | O=C(/C=C/c1cccnc1)NCCCCC1CCN(C(=O)c2ccccc2)CC1 [FK866, reference compound] | No inhibition

tested on: human MPNST cell line S462; test: S462 cell viability (CellTiter-Glo, 72 h); type: cell-based; conditions: 10% FBS Nam-free DMEM
Description: This similarity, in addition to the scaffold's particular sensitivity to modifications around the pyridinyl ring led us to hypothesize that the activity of compounds 1 and 9 may depend on the concentration of Nam in the media. To test this hypothesis, we analyzed the activity of both compounds in media supplemented with increasing concentrations of Nam. […] Given that Nam inhibited compound activity, we considered Nam concentrations in basal culture conditions (DMEM supplemented with 10% fetal bovine serum or FBS) as compared to physiological levels. Nam levels in human serum are estimated to be in the 4 μM range.^5 In contrast, DMEM alone contains […] of Nam and the concentration in 10% FBS is expected to range between 0.574-1.56 μM.^6 To more closely reflect physiologic levels of Nam, we evaluated the activity of these compounds in cells grown in DMEM lacking Nam (Nam-free DMEM), so that the only exogenous Nam derives from 10% FBS. […] These observations indicate that the potency of these compounds is in the nanomolar range when tested in the presence of physiological levels of Nam.
We thus re-assessed the structure activity relationship of compound 21 analogs in Nam-free DMEM supplemented with or without 100 μM Nam (see appendix below: Synthesis, characterization and activity of micromolar and nanomolar active nicotinamide derivatives). […] Particularly notable, even in Nam-depleted conditions, all active analogs retained the same 3-pyridinyl ring as Nam, reinforcing the relationship between structural resemblance to Nam and compound efficacy.
In 96-well assay plates (Corning #2903), 2,000 cells were plated per well in 100 μL of medium and allowed to adhere overnight. The next day, compounds or Nam suspended in DMSO were dispensed to the assayed wells using a D300e Digital Dispenser (Tecan). All wells were normalized to 0.5% DMSO. 72 hours after incubation at 37 °C in 5% CO2, cell viability was assayed using an ATP-based luminescent viability assay, CellTiter-Glo (Promega #G8462). CellTiter-Glo substrate was mixed 1:1 with phosphate-buffered saline (PBS) supplemented with 1% Triton X-100, and 40 μL of this mixture was added to the assay wells. After the plates were shaken on a microplate shaker for 10 minutes at room temperature, luminescence was recorded using a Synergy 2 Microplate Reader or Cytation 5 plate reader (BioTek). In Prism 9 software (GraphPad), ten-point dose response curves were plotted with baseline-correction to the vehicle control well, and IC50 values were calculated by curve fitting using asymmetric (five parameter), least squares fit.

Row | SMILES | toxicity to S462
2 | CC(=O)c1cccnc1 [Compound 3-AP, 3-acetylpyridine, reference compound] | toxic to S462
3 | NC(=O)c1csc([C@@H]2O[C@H](CO)[C@@H](O)[C@H]2O)n1 [tiazofurin, reference compound] | toxic to S462
4 | O=C(NCc1cccnc1)Nc1ccc([N+](=O)[O-])cc1 [vacor, reference compound] | toxic to S462

same assay, conditions: 10% FBS Nam-free DMEM, comparison of vacor, 3-AP, tiazofurin and 9

Row | SMILES | rescue by nicotinamide
5 | CC(=O)c1cccnc1 [Compound 3-AP, 3-acetylpyridine, reference compound] | rescued by nicotinamide
6 | NC(=O)c1csc([C@@H]2O[C@H](CO)[C@@H](O)[C@H]2O)n1 [tiazofurin, reference compound] | all compounds except tiazofurin were rescued by nicotinamide
7 | O=C(NCc1cccnc1)Nc1ccc([N+](=O)[O-])cc1 [vacor, reference compound] | rescued by nicotinamide

same assay, conditions: S462, commercial DMEM; highest dose tested 50 μM; read-out: IC50

Row | SMILES | IC50 [µM]
8 | O=C(Nc1ccccc1)c1cccs1 [Compound 2, N-Phenylthiophene-2-carboxamide] | > 50
9 | O=C(Nc1ccccn1)c1cccs1 [Compound 3, N-(Pyridin-2-yl)thiophene-2-carboxamide] | > 50
10 | O=C(Nc1ccncc1)c1cccs1 [Compound 4, N-(Pyridin-4-yl)thiophene-2-carboxamide] | > 50

same assay, conditions: [nicotinamide] 0 μM, Nam-free DMEM; read-out: IC50 (μM), [nicotinamide] 0 μM

Row | SMILES | IC50 [µM]
11 | Cc1csc(C(=O)Nc2cccnc2)c1 | 0.302
12 | O=C(Nc1cccnc1)c1ccccc1 | 0.064
13 | O=C(Nc1cccnc1)c1ccccn1 | 0.992
14 | O=C(Nc1cccnc1)c1ccco1 | 0.022
15 | O=C(Nc1cccnc1)c1cccnn1 | 18
16 | O=C(Nc1cccnc1)c1ccoc1 | 0.948
17 | O=C(Nc1cccnc1)c1ccc[nH]1 | 0.08
18 | O=C(Nc1cccnc1)c1ccc(Br)s1 | 0.234
19 | O=C(Nc1cccnc1)c1ncc[nH]1 | 22.4
20 | O=C(Nc1cccnc1)c1ccc(Cl)cc1 | 0.921
21 | O=C(Nc1cccnc1)c1cc2ccccc2s1 | 0.249
22 | COc1ccc(C(=O)Nc2cccnc2)cc1 | 0.686
23 | O=C(Nc1cccnc1)c1nccs1 | 1.88
24 | O=C(Nc1cccnc1)c1ccc(C(F)(F)F)cc1 | 0.771
25 | O=C(Nc1cccnc1)c1ncco1 | 19.5
26 | Cc1ccsc1C(=O)Nc1cccnc1 | 1.08
27 | N#Cc1ccc(C(=O)Nc2cccnc2)s1 | 0.075

same assay, conditions: [nicotinamide] 33 μM; read-out: IC50 (μM), [nicotinamide] 33 μM

Row | SMILES | IC50 [µM]
28 | Cc1csc(C(=O)Nc2cccnc2)c1 | > 50
29 | O=C(Nc1cccnc1)c1ccccc1 | 16.8
30 | O=C(Nc1cccnc1)c1ccccn1 | > 50
31 | O=C(Nc1cccnc1)c1ccco1 | > 50
32 | O=C(Nc1cccnc1)c1cccnn1 | > 50
33 | O=C(Nc1cccnc1)c1ccoc1 | > 50
34 | O=C(Nc1cccnc1)c1ccc[nH]1 | > 50
35 | O=C(Nc1cccnc1)c1ccc(Br)s1 | 15.6
36 | O=C(Nc1cccnc1)c1ncc[nH]1 | > 50
37 | O=C(Nc1cccnc1)c1ccc(Cl)cc1 | > 50
38 | O=C(Nc1cccnc1)c1cc2ccccc2s1 | 21.4
39 | COc1ccc(C(=O)Nc2cccnc2)cc1 | > 50
40 | O=C(Nc1cccnc1)c1nccs1 | > 50
41 | O=C(Nc1cccnc1)c1ccc(C(F)(F)F)cc1 | > 50
42 | O=C(Nc1cccnc1)c1ncco1 | > 50
43 | Cc1ccsc1C(=O)Nc1cccnc1 | > 50
44 | N#Cc1ccc(C(=O)Nc2cccnc2)s1 | 14.2

same assay, conditions: [nicotinamide] 100 μM; read-out: IC50 (μM), [nicotinamide] 100 μM

Row | SMILES | IC50 [µM]
45 | Cc1csc(C(=O)Nc2cccnc2)c1 | > 50
46 | O=C(Nc1cccnc1)c1ccccc1 | > 50
47 | O=C(Nc1cccnc1)c1ccccn1 | > 50
48 | O=C(Nc1cccnc1)c1ccco1 | > 50
49 | O=C(Nc1cccnc1)c1cccnn1 | > 50
50 | O=C(Nc1cccnc1)c1ccoc1 | > 50
51 | O=C(Nc1cccnc1)c1ccc[nH]1 | > 50
52 | O=C(Nc1cccnc1)c1ccc(Br)s1 | > 50
53 | O=C(Nc1cccnc1)c1ncc[nH]1 | > 50
54 | O=C(Nc1cccnc1)c1ccc(Cl)cc1 | > 50
55 | O=C(Nc1cccnc1)c1cc2ccccc2s1 | > 50
56 | COc1ccc(C(=O)Nc2cccnc2)cc1 | > 50
57 | O=C(Nc1cccnc1)c1nccs1 | > 50
58 | O=C(Nc1cccnc1)c1ccc(C(F)(F)F)cc1 | > 50
59 | O=C(Nc1cccnc1)c1ncco1 | > 50
60 | Cc1ccsc1C(=O)Nc1cccnc1 | > 50
61 | N#Cc1ccc(C(=O)Nc2cccnc2)s1 | > 50

tested on: SARM1; test: Cytotoxicity in SARM1-knockout versus wild type cells; type: cell-based; conditions: SARM1-knockout vs wild type
Description: (§1) Given that vacor, 3-AP, and compound 21 are all metabolized to toxic, NAD-like derivatives through NAMPT and NMNAT, we hypothesized that their anti-cancer activity may also depend on SARM1. To test this, we compared the toxic effects of vacor, 3-AP, and 9 in either wild type cells or cells in which we used CRISPR to silence SARM1. […] These observations highlight that even though these different scaffolds are toxified through the same mechanism, the resulting metabolites may have different activities. We next co-titrated guanosine, which is known to rescue tiazofurin by bypassing IMPDH in guanylate synthesis, with each of the above small molecules. […] To test this hypothesis, we set up in vitro reactions with different combinations of 9, NAMPT and NMNAT. After incubation, metabolites were extracted, reconstituted in aqueous solution and then co-incubated with an established IMPDH2 enzyme assay.

Row | SMILES | sensitivity of SARM1-knockout cells | resistance of SARM1-knockout cells [fold]
62 | CC(=O)c1cccnc1 [Compound 3-AP, 3-acetylpyridine, reference compound] | equally sensitive | 
63 | O=C(NCc1cccnc1)Nc1ccc([N+](=O)[O-])cc1 [vacor, reference compound] |  | 3

tested on: IMPDH; test: Guanosine co-titration rescue; type: cell-based; conditions: guanosine co-titrated
Description: as §1

Row | SMILES | guanosine rescue of toxicity
64 | CC(=O)c1cccnc1 [Compound 3-AP, 3-acetylpyridine, reference compound] | no rescue
65 | NC(=O)c1csc([C@@H]2O[C@H](CO)[C@@H](O)[C@H]2O)n1 [tiazofurin, reference compound] | guanosine rescue
66 | O=C(NCc1cccnc1)Nc1ccc([N+](=O)[O-])cc1 [vacor, reference compound] | no rescue
